Assay results taken from US20170029531A1, “INHIBITION OF LACTATE DEHYDROGENASE 5 (LDH-5) BINDING, INCORPORATION, INTERNALIZATION AND/OR ENDOCYTOSIS TO IMMUNE CELLS” (Seattle Children's Hospital (dba Seattle Children's …, priority 2014, published 2017).

Assays:
U87 = U87 uptake of fluorescently labeled LDH5, flow cytometry; assay type: cell-based
Procedure: FIG. 26. U87 uptake. […] Fluorescently labeled LDH5 and Transferrin were pre-incubated with anti-LDHa at equilmolar concentrations. The antibody protein combination were then fed to U87 for 30 min. Cells were then trypsinized, acid washed, fixed in 2% PFA. Fluorescence intensity was obtained by flow cytometry. Anti-LDHa blocks uptake by approximately 50%, but has no effect on Transferrin uptake. N=2, p<0.05.
FIG. 27. U87 uptake. […] Fluorescently labeled LDH5 and Transferrin were incubated with U87 in the presence or absence of 20 mM oxamate for 30 min. Cells were then trypsinized, acid washed, fixed in 2% PFA. Fluorescence intensity was obtained by flow cytometry. N=1.
FIG. 28. U87 uptake. […] Fluorescently labeled LDH5 and Transferrin were incubated with U87 in the presence or absence of equimolar MDH for 30 min. Cells were then trypsinized, acid washed, fixed in 2% PFA. Fluorescence intensity was obtained by flow cytometry. N=1.
FIG. 29. U87 uptake. […] Cells were pre-incubated with 30 uM Dyngo 4a or 18 uM Pitstop. Fluorescently labeled LDH5 was then added for 30 min. Cells were then trypsinized, acid washed, fixed in 2% PFA. Fluorescence intensity was obtained by flow cytometry.
Experimental wells were pulsed with 10 ug/mL LDH-A488 for 30 min or 24 hours as indicated (control wells received no LDH) at 37° C. Cells were treated for 2 min with 0.5M acetic acid+150 mM NaCl (pH 2.5), followed by 4 subsequent washes in RPMI+10% FBS. […] (See FIGS. 26-29).

[1] = system: monocytes from healthy donors; assay: NKG2D ligand (MICA, MICB, ULBP-1) mRNA induction in monocytes from healthy donors (MHD), qPCR; assay type: cell-based, human; conditions: U87 supernatant with sodium oxamate (100 mM in FIG. 2 panel E; 20 mM in the LDH inhibition method); 18 h; qPCR
Source text: FIG. 2. Biochemical purification of tumor-derived Lactate Dehydrogenase, expression in glioma cell lines and verification of LDH-mediated induction of NKG2D ligands on monocytes. (Panel A) Protein purification strategy. […] of U87 glioblastoma cell line supernatant were subjected to ammonium sulfate precipitation. Active fractions were passed over a phenyl Sepharose column and active fractions were then subjected to size exclusion (Superdex 200), followed by ion exchange (MonoS) before Mass Spectroscopy (MS) analysis. (Panel B) Following separation by chromatography, fractions were dialyzed into PBS and cultured with MHD (healthy monocytes) for 18 hours. Whole cell mRNA was reverse transcribed, and induction of MICB and ULBP-1 was analyzed relative to media alone controls. Western blot analysis using a monoclonal antibody to LDH-5 (ab101562) was performed on […] of total protein to confirm the presence of LDH-5 in the active fractions. (Panel C) mRNA isolated from PBMC of healthy donors, 293T cells (as negative controls), and U87, U251, and SF767 glioma cell lines were analyzed for expression of LDHA and LDHB by qPCR. (Panel D) A 1:10 dilution of fresh, unfrozen glioblastoma cell line supernatants was analyzed for total LDH enzymatic activity and expressed as OD 495 nm. (Panel E) Validation of LDH induction of NKG2D ligands in monocytes. Six hundred twenty five U/L of purified, native LDH-5, fresh U87 supernatant, or fresh U87 supernatant in the presence of 100 mM sodium oxamate (NaOx) were cultured with MHD. Eighteen hours later, mRNA was isolated and analyzed for MICA, MICB, and ULBP-1 by qPCR. Values represent induction relative to MHD cultured in media alone. (Panel F) Fresh U87 supernatant, 625 U/L of purified, native LDH-5, LDH-5+0.5 mM Pyruvate (Pyr), or LDH-5+0.5 mM pyruvate and 100 mM NaOx were cultured with MHD. Eighteen hours later, mRNA was isolated and analyzed for MICA, MICB and ULBP-1 by qPCR. Values represent induction relative to MHD cultured in media alone. (Panel G) MHD were cultured with native LDH-5 isolated from liver cells. Eighteen hours later, MICB (black bars) and ULBP-1 (gray bars) were measured by qPCR. (Panel H) Expression of NKG2D and NKp46 on primary human NK cells following a 12 hour incubation with LDH (50 ug/mL) or lactate (20 mM). Cells were surface stained with antibodies directed against CD3, CD56, NKG2D, and NKp46 and analyzed by flow cytometry. The expression level of NKG2D and NKp46 are plotted against CD56. (Panel I) Expression of CD107a on primary human NK cells following IL-2 (1000 U/ml) activation and a 6 hour incubation with LDH (50 ug/mL) or lactate (20 mM). Cells were surface stained with antibodies directed against CD3, CD56, and CD107a and analyzed by flow cytometry. Representative data are shown in the top panels, a summary of percent CD107a+NK cells is shown below. (Panel J) 293T cells were transiently transfected with a pcDNA3.1 (−) vector encoding either LDHA or LDHB, or both constructs. Supernatant was then cultured with CD14-positively selected MHD. Eighteen hours later, MICB and ULBP-1 were measured by qPCR. Values represent induction relative to monocytes cultured in media alone. *P<0.05, **P<0.01.
FIG. 21. Purified native LDH5 or LDH1 was cultured with monocytes from healthy donors. Eighteen hours later, MICB and ULBP-1 were measured by qPCR. Values represent induction relative to monocytes cultured in medium alone. […]

Tumor cells = assay: LDH-5 internalization by tumor cells, flow cytometry (FIGS. 16-19); assay type: cell-based; conditions: sodium oxamate, FIG. 18
Procedure: FIG. 17. Tumor cells internalize LDH-5, which can be reduced by antibody blocking. 10 ug/ml of LDH5 specific monoclonal antibody was added to cells 1 hour prior to culture with LDH5 as described above and evaluated for internalization using flow cytometry to evaluate fluorescence.
FIG. 19. LDH-5 internalization is receptor mediated and Clathrin dependent. LDH5 internalization is reduced with receptor mediated endocytosis inhibitors.
LDH5 internalization is reduced with receptor mediated endocytosis inhibitors. This supports that internalization is mediated by a specific receptor, as opposite to bulk phagocytosis.

[2] = system: monocytes, or monocyte derived macrophages; assay: Uptake of fluorescently labeled LDH5 by monocytes / monocyte derived macrophages (CD14+ cells), flow cytometry; assay type: cell-based, human; conditions: monocyte derived macrophages pre-incubated with 25 uM chlorpromazine for 30 min, labeled LDH5 for a further 30 min; N=2
Procedure: FIG. 23. […] Fluorescently labeled LDH5 was pre-incubated with anti-LDHa at equilmolar concentrations. The antibody protein combination was then fed to monocytes, or monocyte derived macrophages for 30 min. Cells were then trypsinized, acid washed, fixed in 2% PFA. Fluorescence intensity was obtained by flow cytometry. Anti-LDHa blocks uptake by approximately 50%. Macrophages N=1, Monocytes N=2.
FIG. 24. […] Monocyte derived macrophages were pre-incubated with 25 uM chlorpromazine for 30 min. Fluorescently labeled LDH5 was then added for an additional 30 min. Cells were then trypsinized, acid washed, fixed in 2% PFA. Fluorescence intensity was obtained by flow cytometry. N=2
FIG. 25. […] Fluorescently labeled LDH5 was incubated with U87 in the presence or absence of equimolar MDH for 30 min. Cells were then trypsinized, acid washed, fixed in 2% PFA. Fluorescence intensity was obtained by flow cytometry. N=2.
In an experiment utilizing the antibody with LDH5 in serum, the LDH5 complexed to the antibody was added to macrophages and to a sample of monocytes. […] Monocyte derived macrophages were pre-incubated with 25 uM chlorpromazine for 30 min. […] Fluorescence intensity was obtained by flow cytometry. […] Fluorescence intensity was obtained by flow cytometry. Cells exposed to LDH5-A488 were compared to cells without and amount of fluorescence was determined to represent amount of LDH5 inside of the cell.

primary human NK cells = assay: NKG2D expression and CD107a degranulation of primary human NK cells after incubation with LDH or lactate; assay type: cell-based; conditions: LDH 50 ug/mL or lactate 20 mM; 12 hour (NKG2D, NKp46) or 6 hour after IL-2 (CD107a)
Source text: FIG. 2. Biochemical purification of tumor-derived Lactate Dehydrogenase, expression in glioma cell lines and verification of LDH-mediated induction of NKG2D ligands on monocytes. (Panel A) Protein purification strategy. […] of U87 glioblastoma cell line supernatant were subjected to ammonium sulfate precipitation. Active fractions were passed over a phenyl Sepharose column and active fractions were then subjected to size exclusion (Superdex 200), followed by ion exchange (MonoS) before Mass Spectroscopy (MS) analysis. (Panel B) Following separation by chromatography, fractions were dialyzed into PBS and cultured with MHD (healthy monocytes) for 18 hours. Whole cell mRNA was reverse transcribed, and induction of MICB and ULBP-1 was analyzed relative to media alone controls. […] (Panel C) mRNA isolated from PBMC of healthy donors, 293T cells (as negative controls), and U87, U251, and SF767 glioma cell lines were analyzed for expression of LDHA and LDHB by qPCR. (Panel D) A 1:10 dilution of fresh, unfrozen glioblastoma cell line supernatants was analyzed for total LDH enzymatic activity and expressed as OD 495 nm. […] Eighteen hours later, mRNA was isolated and analyzed for MICA, MICB, and ULBP-1 by qPCR. […] Eighteen hours later, mRNA was isolated and analyzed for MICA, MICB and ULBP-1 by qPCR. […] Eighteen hours later, MICB (black bars) and ULBP-1 (gray bars) were measured by qPCR. […]

[3] = biological target: UL16-binding protein 1 (ULBP1) on monocytes (human) (UniProt Q9BZM6); assay: cell-based or functional assay
[4] = biological target: MHC class I polypeptide-related sequence B (MICB) on monocytes (human) (UniProt Q29980); assay: cell-based or functional assay
Sequence of UniProt Q29980 (Q29980 23-383): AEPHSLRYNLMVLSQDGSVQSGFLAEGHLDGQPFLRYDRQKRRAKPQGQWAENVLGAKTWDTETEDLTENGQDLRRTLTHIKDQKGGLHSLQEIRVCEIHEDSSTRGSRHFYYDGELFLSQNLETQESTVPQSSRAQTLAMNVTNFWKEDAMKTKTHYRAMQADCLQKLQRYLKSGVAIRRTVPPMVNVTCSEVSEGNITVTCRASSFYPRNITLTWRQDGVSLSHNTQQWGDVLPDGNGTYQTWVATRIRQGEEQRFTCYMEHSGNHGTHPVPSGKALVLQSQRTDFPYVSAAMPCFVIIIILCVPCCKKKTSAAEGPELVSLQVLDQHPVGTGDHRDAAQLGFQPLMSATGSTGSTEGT

Sequence of UniProt Q9BZM6 (Q9BZM6 26-216): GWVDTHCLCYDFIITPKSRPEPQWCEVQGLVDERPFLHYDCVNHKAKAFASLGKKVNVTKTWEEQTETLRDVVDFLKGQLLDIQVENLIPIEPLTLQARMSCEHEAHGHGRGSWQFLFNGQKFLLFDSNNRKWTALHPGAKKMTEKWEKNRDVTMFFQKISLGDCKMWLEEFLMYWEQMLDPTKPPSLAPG

`O=C(N/N=C/c1cc(O)c(O)cc1O)c1cc2ccccc2cc1O` [Dyngo 4a] was tested, and the “LDH5 uptake, effect in words” value (U87; U87 pre-incubated with 30 uM Dyngo 4a, labeled LDH5 for 30 min) was “block LDH5 uptake”.

With `O=C1N=C(NS(=O)(=O)c2cccc3ccccc23)SC1=Cc1ccc(Br)cc1` [Pitstop] the “LDH5 uptake, effect in words” value (U87; U87 pre-incubated with 18 uM Pitstop, labeled LDH5 for 30 min) was “block LDH5 uptake”.

For `NC(=O)C(=O)[O-].[Na+]` [Sodium oxamate, sodium oxamate, reference compound], the “Ability of U87 supernatant to induce NKG2D ligands (mRNA) on MHD” value [1] was “significantly reduced”, the “LDH-5 internalization in tumor cells, effect in words” value (Tumor cells) was “reduces internalization” and the “LDH5 uptake, effect in words” value (U87; U87, 20 mM oxamate, 30 min, N=1) was “blocks LDH5 uptake”.

For `CN(C)CCCN1c2ccccc2Sc2ccc(Cl)cc21` [chlorpromazine], the “LDH5 uptake, effect in words” value [2] was “blocks LDH5 uptake”.

`CC(O)C(=O)O` (centres unmarked) [lactate] was tested, and the “NK cell NKG2D expression or degranulation” value (primary human NK cells) was “neither lactate nor LDH-5 alone directly impacted”.

With “Natural killer group 2, member D (NKG2D) receptor on NK cells (from UniProt P26718 1-216)” the IFN-γ production by degranulating NK cells [3] was 20.2%, the degranulation of IL-2-activated NK cells [3] was 75.3% and the IFN-γ production by degranulating NK cells [4] was 20.2%. For the same compound, the degranulation of IL-2-activated NK cells [4] was 75.3%.
